Columns and labels:
[1] = Drug uptake in FAP-positive human U-87 MG cells assessed as binding rate measured after 10 mins; format: ADME, cell-based; conditions: u-87mg atcc
[2] = Drug uptake in FAP-positive human U-87 MG cells assessed as binding rate measured after 60 mins; format: ADME, cell-based; conditions: u-87mg atcc, 1 h
[3] = Drug uptake in FAP-positive human U-87 MG cells assessed as binding rate measured for 4 hrs; format: ADME, cell-based; conditions: u-87mg atcc
[4] = Drug uptake in FAP-positive human U-87 MG cells assessed as binding rate pretreated with excess standard products measured after 60 mins; format: ADME, cell-based; conditions: u-87mg atcc, 1 h
[5] = Drug uptake in FAP-negative human MCF7 cells assessed as binding rate measured after 10 to 240 mins; format: ADME, cell-based; conditions: time 10-240 min
[6] = Cytotoxicity against human U-87 MG cells assessed as cell viability at 12 kBq incubated in radioactive medium for 12 hrs followed by incubation in non-radioactive medium for 24 hrs by CCK8 assay; format: functional, U-87MG ATCC; conditions: time 36 hrs
[7] = Cytotoxicity against human U-87 MG cells assessed as cell viability at 92 kBq incubated in radioactive medium for 12 hrs followed by incubation in non-radioactive medium for 24 hrs by CCK8 assay; format: functional, U-87MG ATCC; conditions: time 36 hrs
[8] = Induction of cell cycle arrest in human U-87 MG cells assessed as proportion of cells at G2/M phase at 23 kBq incubated in radioactive medium for 12 hrs followed by incubation in non-radioactive medium for 24 hrs by PI staining based flow cytometry (reference value: 15.7 +/-3.61%); format: functional, U-87MG ATCC; conditions: time 36 hrs
[9] = Induction of cell cycle arrest in human U-87 MG cells assessed as proportion of cells at G0/G1 phase at 23 kBq incubated in radioactive medium for 12 hrs followed by incubation in non-radioactive medium for 24 hrs by PI staining based flow cytometry (reference value: 69.9 +/-3.76%); format: functional, U-87MG ATCC; conditions: time 36 hrs
[10] = Inhibition of colony formation in human U-87 MG cells assessed as survival fraction at 4.6 kBq incubated in radioactive medium for 12 hrs followed by incubation in non-radioactive medium for 14 days by crystal violet staining based analysis; format: functional, U-87MG ATCC; conditions: time 852 hrs
[11] = Inhibition of colony formation in human U-87 MG cells assessed as survival fraction at 9.2 kBq incubated in radioactive medium for 12 hrs followed by incubation in non-radioactive medium for 14 days by crystal violet staining based analysis; format: functional, U-87MG ATCC; conditions: time 852 hrs
[12] = Inhibition of colony formation in human U-87 MG cells assessed as survival fraction at 18.5 kBq incubated in radioactive medium for 12 hrs followed by incubation in non-radioactive medium for 14 days by crystal violet staining based analysis; format: functional, U-87MG ATCC
[13] = Drug uptake in tumor of BALB/c nude mouse xenografted with human U-87 MG cells at 0.3 MBq, iv measured after 0.5 hrs by gamma-counting analysis; format: ADME, organism-based, Neoplasm; conditions: in vivo
[14] = Drug uptake in tumor of BALB/c nude mouse xenografted with human U-87 MG cells at 0.3 MBq, iv measured after 2 hrs by gamma-counting analysis; format: ADME, organism-based, Neoplasm; conditions: in vivo
[15] = Drug uptake in tumor of BALB/c nude mouse xenografted with human U-87 MG cells at 0.3 MBq, iv measured after 6 hrs by gamma-counting analysis; format: ADME, organism-based, Neoplasm; conditions: in vivo
[16] = Drug uptake in tumor of BALB/c nude mouse xenografted with human U-87 MG cells at 0.3 MBq, it measured after 0.5 hrs by gamma-counting analysis; format: ADME, tissue-based, Neoplasm; conditions: other
[17] = Drug uptake in tumor of BALB/c nude mouse xenografted with human U-87 MG cells at 0.3 MBq, it measured after 2 hrs by gamma-counting analysis; format: ADME, tissue-based, Neoplasm; conditions: other
[18] = Drug uptake in tumor of BALB/c nude mouse xenografted with human U-87 MG cells at 0.3 MBq, it measured after 6 hrs by gamma-counting analysis; format: ADME, Neoplasm; conditions: other
[19] = Drug uptake in liver of BALB/c nude mouse xenografted with human U-87 MG cells at 0.3 MBq, it measured after 0.5 hrs by gamma-counting analysis; format: ADME, tissue-based; conditions: other
[20] = Drug uptake in kidney of BALB/c nude mouse xenografted with human U-87 MG cells at 0.3 MBq, it measured after 0.5 hrs by gamma-counting analysis; format: ADME, tissue-based; conditions: other
[21] = Drug uptake in liver of BALB/c nude mouse xenografted with human U-87 MG cells at 0.3 MBq, iv measured after 0.5 hrs by gamma-counting analysis; format: ADME, organism-based; conditions: in vivo
[22] = Drug uptake in kidney of BALB/c nude mouse xenografted with human U-87 MG cells at 0.3 MBq, iv measured after 0.5 hrs by gamma-counting analysis; format: ADME, organism-based; conditions: in vivo
[23] = Drug uptake in thyroid of BALB/c nude mouse xenografted with human U-87 MG cells at 0.3 MBq, iv by gamma-counting analysis; format: ADME, organism-based, Thyroid gland; conditions: in vivo
[24] = Drug uptake in stomach of BALB/c nude mouse xenografted with human U-87 MG cells at 0.3 MBq, iv by gamma-counting analysis; format: ADME, organism-based; conditions: in vivo
[25] = Drug uptake in thyroid of BALB/c nude mouse xenografted with human U-87 MG cells at 0.3 MBq, it by gamma-counting analysis; format: ADME, tissue-based, Thyroid gland; conditions: other
[26] = Drug uptake in stomach of BALB/c nude mouse xenografted with human U-87 MG cells at 0.3 MBq, it by gamma-counting analysis; format: ADME; conditions: other
[27] = Ratio of drug level in tumor to muscle in BALB/c nude mouse xenografted with human U-87 MG cells at 0.3 MBq, it measured after 2 hrs by gamma-counting analysis; format: ADME, tissue-based; conditions: other
[28] = Ratio of drug level in tumor to blood in BALB/c nude mouse xenografted with human U-87 MG cells at 0.3 MBq, it measured after 2 hrs by gamma-counting analysis; format: ADME, tissue-based; conditions: other
[29] = Ratio of drug level in tumor to liver in BALB/c nude mouse xenografted with human U-87 MG cells at 0.3 MBq, it measured after 2 hrs by gamma-counting analysis; format: ADME, tissue-based; conditions: other
[30] = Ratio of drug level in tumor to kidney in BALB/c nude mouse xenografted with human U-87 MG cells at 0.3 MBq, it measured after 2 hrs by gamma-counting analysis; format: ADME, tissue-based; conditions: other
[31] = Anti-tumor activity against human U-87 MG cells xenografted in BALB/c nude mouse assessed as reduction in tumor volume at 0.18 MBq, it measured on day 15 by electronic caliper analysis; format: functional, U-87MG ATCC
[32] = Anti-tumor activity against human U-87 MG cells xenografted in BALB/c nude mouse assessed as reduction in tumor volume at 0.37 MBq, it measured on day 15 by electronic caliper analysis; format: functional, U-87MG ATCC
[33] = Anti-tumor activity against human U-87 MG cells xenografted in BALB/c nude mouse assessed as reduction in tumor volume at 0.55 MBq, it measured on day 15 by electronic caliper analysis; format: functional, U-87MG ATCC; conditions: time 15 day
[34] = Toxicity in BALB/c nude mouse xenografted with human U-87 MG cells assessed as change in body weight at 0.18 to 0.55 MBq, it; conditions: other, dose 0.18-0.55 MBq
[35] = Toxicity in BALB/c nude mouse xenografted with human U-87 MG cells assessed as kidney morphological changes at 0.55 MBq, it measured after 2 to 12 days by Hematoxylin-Eosin staining based analysis; format: tissue-based; conditions: other, time 2-12 day
[36] = Toxicity in BALB/c nude mouse xenografted with human U-87 MG cells assessed as liver morphological changes at 0.55 MBq, it measured after 2 to 12 days by Hematoxylin-Eosin staining based analysis; format: tissue-based; conditions: other, time 2-12 day
[37] = Toxicity in BALB/c nude mouse xenografted with human U-87 MG cells assessed as stomach morphological changes at 0.55 MBq, it measured after 2 to 12 days by Hematoxylin-Eosin staining based analysis; format: tissue-based; conditions: other, time 2-12 day
[38] = Toxicity in BALB/c nude mouse xenografted with human U-87 MG cells assessed as thyroid morphological changes at 0.55 MBq, it measured after 2 to 12 days by Hematoxylin-Eosin staining based analysis; conditions: other, time 2-12 day
[39] = Hepatotoxicity BALB/c nude mouse xenografted with human U-87 MG cells assessed as change in serum ALT level at 0.55 MBq, it measured after 2 to 12 days; format: toxicity; conditions: other, time 2-12 day
[40] = Renal toxicity BALB/c nude mouse xenografted with human U-87 MG cells assessed as change in BUN level at 0.55 MBq, it measured after 2 to 12 days; conditions: other, time 2-12 day
[41] = Antitumor activity against human U-87 MG cells xenografted in BALB/c nude mouse assessed as Ki67 expression in tumor at 0.55 MBq, it measured after 2 days by immunohistochemical analysis (reference value: 49.8 +/-7.67%); format: functional, U-87MG ATCC; conditions: time 2 day
[42] = Antitumor activity against human U-87 MG cells xenografted in BALB/c nude mouse assessed as proportion of TUNEL-positive cells in tumor at 0.55 MBq, it measured after 2 days by immunohistochemical analysis (reference value: 3.54 +/-2.71%); format: functional, U-87MG ATCC; conditions: time 2 day
[43] = Antitumor activity against human U-87 MG cells xenografted in BALB/c nude mouse assessed as proportion of TUNEL-positive cells in tumor at 0.55 MBq, it measured after 12 days by immunohistochemical analysis (reference value: 3.31 +/-1.13%); format: functional, U-87MG ATCC; conditions: time 12 day
[44] = Stability of the compound in saline measured after 24 hrs by iTLC analysis; format: physicochemical; conditions: read-out: Stability
[45] = Stability of the compound in serum (unknown origin) measured after 24 hrs by iTLC analysis; format: ADME, cell-free; conditions: read-out: Stability
[46] = Anti-tumor activity against human U-87 MG cells xenografted in BALB/c nude mouse assessed as median survival time at 0.18 MBq, it (reference value: 16.5 days); format: functional, U-87MG ATCC
[47] = Anti-tumor activity against human U-87 MG cells xenografted in BALB/c nude mouse assessed as median survival time at 0.37 MBq, it (reference value: 16.5 days); format: functional, U-87MG ATCC
[48] = Anti-tumor activity against human U-87 MG cells xenografted in BALB/c nude mouse assessed as median survival time at 0.55 MBq, it (reference value: 16.5 days); format: functional, U-87MG ATCC

Which results are given for `N#C[C@@H]1CC(F)(F)CN1C(=O)CNC(=O)c1ccnc2ccc(OCCCN3CCN(C(=O)c4ccc([211At])cc4)CC3)cc12`?
Drug uptake [1]: 14.4%; Drug uptake [2]: 24.9%; Drug uptake [3]: Active; Drug uptake [4]: 9.3%; Drug uptake [5]: 4.7%; Activity [6]: 61.9%; Activity [7]: 42.1%; Activity [8]: 62.7%; Activity [9]: 21.9%; Activity [10]: 28.1%; Activity [11]: 8.1%; Activity [12]: 1.97%; Drug uptake [13]: 4.04 % ID/g; Drug uptake [14]: 3.12 % ID/g; Drug uptake [15]: 1.86 % ID/g; Drug uptake [16]: 132.5 % ID/g; Drug uptake [17]: 19.24 % ID/g; Drug uptake [18]: 11.47 % ID/g; Drug uptake [19]: Active; Drug uptake [20]: Active; Drug uptake [21]: Active; Drug uptake [22]: Active; Drug uptake [23]: Active; Drug uptake [24]: Active; Drug uptake [25]: Active; Drug uptake [26]: Active; Ratio [27]: 45.75; Ratio [28]: 14.17; Ratio [29]: 11.13; Ratio [30]: 6.39; inhibition (INH) [31]: 55%; inhibition (INH) [32]: 70%; inhibition (INH) [33]: 76%; Activity [34]: Non-Toxic; Activity [35]: Non-Toxic; Activity [36]: Non-Toxic; Activity [37]: Non-Toxic; Activity [38]: Non-Toxic; Activity [39]: Non-Toxic; Activity [40]: Non-Toxic; Activity [41]: 17.9%; Activity [42]: 28.7%; Activity [43]: 28.5%; remaining at 24 h [44]: 94.7%; remaining at 24 h [45]: 85.6%; Survival [46]: 24 days; Survival [47]: 30 days; Survival [48]: 33 days
